In patent US9650361B2, “N-(pyridin-2-yl)pyrimidin-4-amine derivatives containing a sulfoximine group” (BAYER PHARAM AKTIENGESELLSCHAFT, priority 2012, dated 2017) one finds IC50 data, which are given here for ten compounds.

For one assay, the target named is T1, CDK9/CycT1 (Homo sapiens, UniProt P50750).
T1 construct: Recombinant full-length His-tagged human CDK9 and CycT1; His; purchased Invitrogen PV4131; host or cells: insect cells
Nature of the assay: CDK9/CycT1 high ATP kinase assay (Method 1b). It is filed as biochemical. The settings on record: 2 mM ATP. The method, then: 1b. CDK9/CycT1 High ATP Kinase Assay
CDK9/CycT1-inhibitory activity of compounds of the present invention at a high ATP concentration after preincubation of enzyme and test compounds was quantified employing the CDK9/CycT1 TR-FRET assay as described in the following paragraphs.
Recombinant full-length His-tagged human CDK9 and CycT1, expressed in insect cells and purified by Ni-NTA affinity chromatography, were purchase from Invitrogen (Cat. No PV4131). As substrate for the kinase reaction biotinylated peptide biotin-Ttds-YISPLKSPYKISEG (C-terminus in amid form) was used which can be purchased e.g. form the company JERINI peptide technologies (Berlin, Germany).
For the assay 50 nl of a 100 fold concentrated solution of the test compound in DMSO was pipetted into a black low volume 384 well microtiter plate (Greiner Bio-One, Frickenhausen, Germany), 2 μl of a solution of CDK9/CycT1 in aqueous assay buffer [50 mM Tris/HCl pH 8.0, 10 mM MgCl2, 1.0 mM dithiothreitol, 0.1 mM sodium ortho-vanadate, 0.01% (v/v) Nonidet-P40 (Sigma)] were added and the mixture was incubated for 15 min at 22° C. to allow pre-binding of the test compounds to the enzyme before the start of the kinase reaction. Then the kinase reaction was started by the addition of 3 μl of a solution of adenosine-tri-phosphate (ATP, 3.3 mM=>final conc. in the 5 μl assay volume is 2 mM) and substrate (1.67 μM=>final conc. in the 5 μl assay volume is 1 μM) in assay buffer and the resulting mixture was incubated for a reaction time of 25 min at 22° C. The concentration of CDK9/CycT1 was adjusted depending of the activity of the enzyme lot and was chosen appropriate to have the assay in the linear range, typical concentrations were in the range of 0.5 μg/ml. The reaction was stopped by the addition of 5 μl of a solution of TR-FRET detection reagents (0.2 μM streptavidine-XL665 [Cisbio Bioassays, Codolet, France] and 1 nM anti-RB(pSer807/pSer811)-antibody from BD Pharmingen [#558389] and 1.2 nM LANCE EU-W1024 labeled anti-mouse IgG antibody [Perkin-Elmer, product no. AD0077]) in an aqueous EDTA-solution (100 mM EDTA, 0.2% (w/v) bovine serum albumin in 100 mM HEPES/NaOH pH 7.0).
The resulting mixture was incubated 1 h at 22° C. to allow the formation of complex between the phosphorylated biotinylated peptide and the detection reagents. Subsequently the amount of phosphorylated substrate was evaluated by measurement of the resonance energy transfer from the Eu-chelate to the streptavidine-XL. Therefore, the fluorescence emissions at 620 nm and 665 nm after excitation at 350 nm was measured in a HTRF reader, e.g. a Rubystar (BMG Labtechnologies, Offenburg, Germany) or a Viewlux (Perkin-Elmer). The ratio of the emissions at 665 nm and at […] was taken as the measure for the amount of phosphorylated substrate. The data were normalised (enzyme reaction without inhibitor=0% inhibition, all other assay components but no enzyme=100% inhibition).

Another assay relates to A2780 cells. Nature of the assay: Proliferation assay, A2780 (Method 3). Type of assay: cell-based, human. The settings on record: 4 days, crystal violet, read-out: Inhibition of A2780 cell proliferation IC50. The method, then:
Cultivated tumour cells (HeLa, human cervical tumour cells, ATCC CCL-2; NCI-H460, human non-small cell lung carcinoma cells, ATCC HTB-177; A2780, human ovarian carcinoma cells, ECACC #93112519; DU 145, hormone-independent human prostate carcinoma cells, ATCC HTB-81; HeLa-MaTu-ADR, multidrug-resistant human cervical carcinoma cells, EPO-GmbH Berlin; Caco-2, human colorectal carcinoma cells, ATCC HTB-37; B16F10, mouse melanoma cells, ATCC CRL-6475) were plated at a density of 5,000 cells/well (DU145, HeLa-MaTu-ADR), 3,000 cells/well (NCI-H460, HeLa), 2,500 cells/well (A2780), 1,500 cells/well (Caco-2), or 1,000 cells/well (B16F10) in a 96-well multititer plate in 200 μL of their respective growth medium supplemented 10% fetal calf serum. After 24 hours, the cells of one plate (zero-point plate) were stained with crystal violet (see below), while the medium of the other plates was replaced by fresh culture medium (200 μl), to which the test substances were added in various concentrations (0 μM, as well as in the range of 0.001-10 μM; the final concentration of the solvent dimethyl sulfoxide was 0.5%). The cells were incubated for 4 days in the presence of test substances. Cell proliferation was determined by staining the cells with crystal violet: the cells were fixed by adding 20 μl/measuring point of an 11% glutaric aldehyde solution for 15 minutes at room temperature. After three washing cycles of the fixed cells with water, the plates were dried at room temperature. The cells were stained by adding 100 μl/measuring point of a 0.1% crystal violet solution (pH 3.0). After three washing cycles of the stained cells with water, the plates were dried at room temperature. The dye was dissolved by adding 100 μl/measuring point of a 10% acetic acid solution. The extinction was determined by photometry at a wavelength of 595 nm. The change of cell number, in percent, was calculated by normalization of the measured values to the extinction values of the zero-point plate (=0%) and the extinction of the untreated (0 μm) cells (=100%). The IC50 values (inhibitory concentration at 50% of maximal effect) were determined by means of a 4 parameter fit.

Like-named read-outs stand apart in the source and are kept apart here.

T1 sequence (P50750 whole entry): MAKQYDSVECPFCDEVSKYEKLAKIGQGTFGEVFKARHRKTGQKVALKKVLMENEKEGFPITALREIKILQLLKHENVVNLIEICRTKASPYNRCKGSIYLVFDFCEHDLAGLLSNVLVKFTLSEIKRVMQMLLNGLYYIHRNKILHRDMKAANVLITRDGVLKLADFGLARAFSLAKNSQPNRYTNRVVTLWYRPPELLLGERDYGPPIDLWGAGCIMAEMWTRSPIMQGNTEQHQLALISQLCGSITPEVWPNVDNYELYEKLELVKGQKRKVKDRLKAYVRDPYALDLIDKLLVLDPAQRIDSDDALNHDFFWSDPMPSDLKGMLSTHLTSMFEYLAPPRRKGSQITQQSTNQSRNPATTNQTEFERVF
T1 sequence (O60563 whole entry partner): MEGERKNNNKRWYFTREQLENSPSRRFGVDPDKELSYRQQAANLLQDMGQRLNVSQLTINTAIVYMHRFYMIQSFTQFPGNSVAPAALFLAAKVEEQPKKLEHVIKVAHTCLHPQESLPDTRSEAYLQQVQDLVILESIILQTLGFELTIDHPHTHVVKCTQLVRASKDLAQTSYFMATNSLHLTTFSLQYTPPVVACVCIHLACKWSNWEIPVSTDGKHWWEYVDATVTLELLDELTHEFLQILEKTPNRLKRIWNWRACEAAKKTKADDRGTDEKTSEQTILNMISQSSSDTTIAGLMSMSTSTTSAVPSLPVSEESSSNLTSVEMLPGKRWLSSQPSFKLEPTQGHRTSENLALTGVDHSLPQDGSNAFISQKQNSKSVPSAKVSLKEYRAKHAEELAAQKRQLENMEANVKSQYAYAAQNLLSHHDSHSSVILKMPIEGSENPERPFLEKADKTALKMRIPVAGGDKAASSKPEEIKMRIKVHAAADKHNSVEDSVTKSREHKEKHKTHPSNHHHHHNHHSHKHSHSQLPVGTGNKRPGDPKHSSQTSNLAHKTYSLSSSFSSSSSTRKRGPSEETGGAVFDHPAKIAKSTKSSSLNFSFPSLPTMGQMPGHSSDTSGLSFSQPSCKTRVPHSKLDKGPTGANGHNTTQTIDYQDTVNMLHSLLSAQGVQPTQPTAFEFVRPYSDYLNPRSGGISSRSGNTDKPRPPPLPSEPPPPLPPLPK

On to `COc1cc(F)ccc1-c1cc(Nc2cc(CS(C)(=N)=O)ccn2)ncn1` (single isomer, unassigned) [Example 3, 6-(4-Fluoro-2-methoxyphenyl)-N-{4-[(S-methylsulfonimidoyl)methyl]pyridin-2-yl}pyrimidin-4-amine], for which the IC50 against CDK9/CycT1 was 10 nM; with A2780 cells, 126 nM.

As for `COc1cc(F)ccc1-c1cc(Nc2cc(CS(C)(=N)=O)cc(Cl)n2)ncn1` (single isomer, unassigned) [Example 6, N-{6-Chloro-4-[(S-methylsulfonimidoyl)methyl]pyridin-2-yl}-6-(4-fluoro-2-methoxyphenyl)pyrimidin-4-amine], the results for the IC50 against CDK9/CycT1 and in the assay with A2780 cells were 5 nM and 39 nM, respectively.

Regarding `COc1cc(F)ccc1-c1cc(Nc2cc(CS(C)(=N)=O)cc(C(F)(F)F)n2)ncn1` (racemic) [Example 10, (rac)-6-(4-Fluoro-2-methoxyphenyl)-N-{4-[(S-methylsulfonimidoyl)methyl]-6-(trifluoromethyl)pyridin-2-yl}pyrimidin-4-amine], the IC50 against CDK9/CycT1 stood at 3 nM; with A2780 cells (Homo sapiens, A2780, 96 h), 32 nM.

Turning to `COc1cc(F)ccc1-c1cc(Nc2cc(CS(C)(=N)=O)cc(C)n2)ncn1` (racemic) [Example 7, (rac)-6-(4-Fluoro-2-methoxyphenyl)-N-{6-methyl-4-[(S-methylsulfonimidoyl)methyl]pyridin-2-yl}pyrimidin-4-amine], the IC50 against CDK9/CycT1 is 4 nM; in the assay with A2780 cells (Homo sapiens, A2780, 96 h), 35 nM.

For `COc1cc(F)ccc1-c1cc(Nc2cc(CS(C)(=N)=O)cc(C)n2)ncn1` (single isomer, unassigned) [Example 9, 6-(4-Fluoro-2-methoxyphenyl)-N-{6-methyl-4-[(S-methylsulfonimidoyl)methyl]pyridin-2-yl}pyrimidin-4-amine], the IC50 at CDK9/CycT1 was 2 nM; with A2780 cells it was 39 nM.

For `COc1cc(F)ccc1-c1cc(Nc2cc(CS(C)(=N)=O)cc(Cl)n2)ncn1` (racemic) [Example 4, (rac)-N-{6-Chloro-4-[(S-methylsulfonimidoyl)methyl]pyridin-2-yl}-6-(4-fluoro-2-methoxyphenyl)pyrimidin-4-amine], the IC50 stood at 11 nM on CDK9/CycT1 and 62 nM with A2780 cells (Homo sapiens, A2780, 96 h).

Turning to `COc1cc(F)ccc1-c1cc(Nc2cc(CS(C)(=N)=O)ccn2)ncn1` (single isomer, unassigned) [Example 2, 6-(4-Fluoro-2-methoxyphenyl)-N-{4-[(S-methylsulfonimidoyl)methyl]pyridin-2-yl}pyrimidin-4-amine], the IC50 was determined as 30 nM at CDK9/CycT1 and 193 nM in the assay with A2780 cells (Homo sapiens, A2780, 96 h).

With `COc1cc(F)ccc1-c1cc(Nc2cc(CS(C)(=N)=O)cc(Cl)n2)ncn1` (single isomer, unassigned) [Example 5, N-{6-Chloro-4-[(S-methylsulfonimidoyl)methyl]pyridin-2-yl}-6-(4-fluoro-2-methoxyphenyl)pyrimidin-4-amine], the IC50 at CDK9/CycT1 stood at 9 nM; with A2780 cells (Homo sapiens, A2780, 96 h), 34 nM.

`COc1cc(F)ccc1-c1cc(Nc2cc(CS(C)(=N)=O)ccn2)ncn1` (racemic) [Example 1, (rac)-6-(4-Fluoro-2-methoxyphenyl)-N-{4-[(S-methylsulfonimidoyl)methyl]pyridin-2-yl}pyrimidin-4-amine]: the IC50 against CDK9/CycT1 is 49 nM; in the assay with A2780 cells (Homo sapiens, A2780, 96 h) it was 60 nM.

For the compound `COc1cc(F)ccc1-c1cc(Nc2cc(CS(C)(=N)=O)cc(C)n2)ncn1` (single isomer, unassigned) [Example 8, 6-(4-Fluoro-2-methoxyphenyl)-N-{6-methyl-4-[(S-methylsulfonimidoyl)methyl]pyridin-2-yl}pyrimidin-4-amine], the IC50 came to 6 nM at CDK9/CycT1 and 36 nM in the assay on A2780 cells (Homo sapiens, A2780, 96 h).
